According to US8716355B2, “Hydroxylated tolans and related compounds in the treatment of a cancer” (Kent State University, priority 2007, dated 2014):
Read-outs that look alike come from different tables or passages of the source.

Columns and labels:
HSV-1 [1] = experiment: HSV-1 replication in infected Vero cells (plaque assay); assay type: cell-based, Herpes Simplex Virus-Type 1
Method: For this purpose HSV-1 replication at 24, 48 and 72 h was examined in the presence or absence of varying concentrations of the polyphenol.
The SI is the ratio of the CD50 divided by a selected inhibitory concentration (IC %).
Viral inhibition by Tolan-3 appeared to occur after viral entry into cells. […] Subsequently, the compound was removed and replaced with culture medium alone, and the incubated continued for 48 or 72 more hrs. In a second experiment, HSV-1 infected Vero cells were incubated with 350 μM Tolan-3 for 48 h. Thereafter, the Tolan-3 was removed and replaced by medium and the incubation continued for an additional 24 h. Viral titers were calculated by a standard plaque assay.

prostate cancer = experiment: Prostate cancer patients (Example VIII A); assay type: in vivo, human; settings: daily 10 μg to 5 mg/Kg; no significant differences between the four groups
Method: A group of 40 men aged 55-75 suffering from prostate cancer receive a daily dosage of between 10 μg and 5 mg/Kg body weight of KST-201, KST-213, KST-301 or KST-401 (10 patients per compound). Examination of the patients by clinical, radiographic and histopathological tests show significant shrinkage in tumors, and signs of cell death in 38% of the patients; there are no significant differences between the four treatment groups.

HSV-1 [2] = test system: HSV-1
Excerpt: FIG. 2. […] A 10% w/v solution of KST-301 in DMSO was applied topically to the epidermal infection site 3×/day for 5 days. Controls animals received the same volume of the DMSO vehicle at the same intervals. Lesions were scored as 0=no visible lesions, +1=papules around the infection site, +2=papules are ulcerated around the infection site with eschar formation, +3=ulcerated zosteriform spread along peripheral nerves to the flank of the animal, +4=ulcerated lesions open on the flank, and +5=death of the animal.
The lesions were scored as in the description for FIG. 2.

Vero cells = experiment: Cytotoxicity (CD50) on Vero cells; assay type: cell-based; settings: 48 hours of exposure
Excerpt: See Example II for tumor cell cytotoxicity of these compounds. […] NAB group 32 contains two compounds, Tolan-2 (also designated herein as KST-201) and Stil-2. Based on the NAB, they were classified as topological isomers. However, chemically they differ because Stil-2, a […], contained a double bonded linker, while Tolan-2 contained a triple bonded linker. The cytotoxicity of the two molecules on Vero cells differed markedly: Tolan-2 was less toxic than Stil-2.

Mushroom tyrosinase = experiment: Inhibition of mushroom tyrosinase activity; assay type: biochemical; settings: concentration not given
Method: All chemical used for reagents were purchased from Sigma Chemical Company. KST201 at each tested concentration (1000, 250 and 100 μM) was dissolved in 10% ethanol from a master mixture of the drug prepared at 0.1M in 100% ethanol.
Mushroom tyrosinase (Sigma) was diluted in 50 mM phosphate buffer, pH 6.5 to yield a concentration of 16 U/μl. […] A master mix containing 0.5 mM L-DOPA [3,4-dihydroxy-1-phenylalanine], 10 mM Sodium L-tyrosine in 50 mM phosphate buffer, pH 6.5 was prepared. The KST-201 dilutions were preincubated with the enzyme for 20 minutes. The samples were pipetted into 24 well plates and the master mixture added quickly. The reaction was read using a kinetic format in which wells were read every 30 seconds over a course of 10 minutes at a wavelength of 475 nm using a Synergy HT Plate reader. A kinetic curve was generated for each sample compared to a total reaction with mushroom tyrosinase without a drug (total).

HSV-1 [3] = experiment: Direct inactivation, attachment and penetration of HSV-1; assay type: cell-based, Herpes Simplex Virus-Type 1
Method: To determine whether Tolan-3 directly inactivated the virus, Tolan-3 was incubated with HSV-1 at room temperature for 1, 30 or 60 minutes while controls were also incubated with HSV-1 at room temperature without Tolan-3. The treated or control virus was plated onto Vero cells.

ovarian cancer = experiment: Ovarian cancer patients (Example VIII D); assay type: in vivo, human; settings: daily gelatin capsule 200 mg
Method: A study is carried out in a group of 40 women with ovarian cancer of various grades to determine the effect of treatment with compounds of KST-201, KST-213, KST-301 and KST-401. The administration protocol involves daily administration of a gelatin capsule containing 200 mg of active compound.

colon cancer = experiment: Colon cancer patients (Example VIII E); assay type: in vivo, human
Method: Eight patients suffering from advanced colon cancer are treated daily for three weeks with an intravenous infusion of 2 g of the compounds KST-201, KST-213, KST-301 or KST-401 dissolved in saline. Two patients are assigned to each compound. The compounds are dissolved in sterile saline. […] Progression of the tumor is also arrested over the treatment period.
Another eight patients with terminal colon cancer are treated by daily bolus injections (intravenous or intramuscular) of 2 g of KST-201, KST-213, KST-301 or KST-401.

bladder cancer = experiment: Bladder cancer patients (Example VIII B); assay type: in vivo, human; settings: intravenous 10 μg to 5 mg/kg over three months
Method: A group of 20 men and 20 women aged 50-75 with bladder cancer are treated by intravenous injection of between 10 μg and 5 mg/kg of KST-201, KST-213, KST-301 or KST-401. Each compound is given to a group of 5 men and 5 women) over a period of three months. Clinical, radiographic and histopathological tests show significant remission in 35% of patients, accompanied by signs of cell death in 45%. There are no significant differences between the results with the four compounds.

breast cancer = experiment: Breast cancer prevention, skin patch (Example VIII C); assay type: in vivo, human; settings: transdermal patch 10 mg to 100 mg daily, one-year study
Method: This study investigates whether KST-201, KST-213, KST-301 and KST-401 administered transdermally each day through a skin patch aid in preventing breast cancer or metastatic cancer following cancer therapy. Patches are prepared with a lipophilic carrier which is readily absorbed through the skin (glycerol cold cream containing glycerin and peanut oil). The HT compound is mixed with the lipophilic cream such that each patch comprises 10 mg to 100 mg of active compound. The patch is applied to the skin each day, and rapid absorption occurs. After two hours, the patch is removed.

MDAH2274 = experiment: MTT cytotoxicity, MDAH2274 ovarian cancer cells; assay type: cell-based, human; settings: Homo sapiens
Method: (§1) As a first step, the antitumor activity of the tolans was assessed against a panel of three cancer cells lines that produce solid tumors upon implantation into animals. DU145 is an androgen-independent prostate cancer cells. T24 is a transitional cell bladder carcinoma cell. MDAH2274 (“MDAH) is an endometroid ovarian adenocarcinoma cell. To assess the selectivity of this antitumor activity, the toxicity of the tolans to normal human fibroblasts (MHRF) was examined.
(§2) Cell killing was evaluated using the colorimetric MTT assay. The assay measures the formation of a colored product from a chromogenic precursor, the tetrazole 3-[4,5-dimethylthiazol-2-yl]-2,5 diphenyltetrazolium bromide (MTT). The yellow MTT is reduced to purple formazan in the mitochondria of living cells. A solubilization solution (typically dimethyl sulfoxide or sodium dodecyl sulfate in dilute hydrochloric acid) is added to dissolve the insoluble purple formazan product into a colored solution. The absorbance of this colored solution is quantified by measuring at a certain wavelength (usually between 500 and 600 nm) by a spectrophotometer. […] This MTT assay is used widely to assess the cytotoxicity and selectivity of compounds such as anti-cancer drugs. The assay is suitable for rapid toxicity characterization of a test agent such as a drug formulation. […] A lower CD50 indicates a greater cytotoxic activity (as a lower amount of the agent is needed to achieve a fixed level of cytotoxicity). Two agents can be compared by examining the fold-increase or decrease in their CD50 values.

T24 = experiment: MTT cytotoxicity, T24 bladder cancer cells; assay type: cell-based, human; settings: Homo sapiens, VC:KST-201 200:1, read-out: CD50 (μM) of each Compound tested in combination, T24
Method: as §1
as §2, with “values. […]” for “values.”

terminal cancer = settings: cited from earlier work
advanced cancer = settings: 10 g oral VC, randomized placebo-controlled trials; cited from earlier work
[4] = mice; 6.5 g/Kg daily for 6 weeks and 2 g/Kg for 2 years; cited from earlier work
[5] = intravenous infusion 2 g daily for three weeks

## Oc1ccc(C#Cc2cc(O)cc(O)c2)cc1 [KST-301, 3,4′,5-trihydroxytolan]
HSV-1 [1]; 350 μM, removed as late as 48 hours post infection
  Reversibility of HSV-1 inhibition after removal of compound: HSV-1 replication recovered
HSV-1 [1]; 48 h post-infection
  SI50 (selectivity index, CD50 divided by IC50): > 63
HSV-1 [1]; Human alphaherpesvirus 1, Vero, read-out: IC50, concentration at which 50% of HSV-1 replication was inhibited, viral assays at lower compound concentrations
  IC50: 6.37 µM
HSV-1 [1]; at CD50, 75% and 50% of CD50, 24, 48, 72 h
  Effect on HSV-1 viral replication in Vero cells (in words): significant anti-HSV activity
Prostate cancer
  Patients with significant shrinkage in tumors, and signs of cell death: 38%
HSV-1 [2]; 5% w/v solution, topical, hairless mice
  Number and severity of HSV lesions: significantly reduced the number and severity of HSV lesions
HSV-1 [2]; 10% w/v solution in DMSO, topical 3×/day for 5 days, hairless mice
  Severity of HSV-1 lesions: significantly reduced
HSV-1 [2]; topical solution in DMSO
  Treated animals in which lesion formation was prevented: 67%
HSV-1 [2]; topical solution in DMSO, controls 83-100%
  Treated animals showing evidence of HSV infection: 33%
HSV-1 [2]; topical solution in DMSO, scale 0 to +5, controls 3.8-4 by days 8 and 9
  Maximum (average) lesion score: 0.8-1.2
HSV-1 [2]; topical, hairless mice
  Dermal toxicity (erythema, scaling, crusting, lichenification, excoriation): no apparent dermal toxicity
Vero cells
  CD50: 350 µM
  Log CD50: 2.54
Mushroom tyrosinase
  % inhibition of mushroom tyrosinase activity: 40.1±9.9%
HSV-1 [3]
  Inhibition of HSV-1 attachment or penetration: did not inhibit HSV-1 attachment or penetration
HSV-1 [3]; incubated with HSV-1 at room temperature 1, 30 or 60 minutes
  Direct inactivation of HSV-1: did not directly inactivate HSV-1
Ovarian cancer
  Rate of production of ovarian cancer markers (Muc-1, Sp17): significant decrease
  Tumor growth during study period: Tumors regress or show no further growth
Colon cancer; daily bolus injections (intravenous or intramuscular) of 2 g
  Dissemination of the tumors: dissemination of the tumors is diminished
Colon cancer; [5]
  Cancer marker carcinoembryonic antigen (CEA): significant reduction
  Progression of the tumor: arrested
Bladder cancer
  Patients with signs of cell death: 45%
Bladder cancer; no differences between compounds
  Patients with significant remission: 35%
Breast cancer
  Breast cancer or metastatic cancer in high-risk group: does not show any evidence of breast cancer or other metastatic cancer

## O=C1O[C@H]([C@@H](O)CO)C([O-])=C1O.[Na+] [VC, sodium ascorbate, reference compound]
MDAH2274; 24 h, MTT, 1 day incubation, read-out: CD50 against MDAH, compound tested individually
  IC50: 937 µM
MDAH2274; 24 h, VC:KST-201 400:1, 1 day, read-out: CD50 (μM) of each Compound tested in combination, MDAH 2274
  IC50: 466 µM
MDAH2274; 48 h, MTT, 2 days incubation, read-out: CD50 against MDAH, compound tested individually
  IC50: 900 ± 46.7 µM
MDAH2274; 48 h, VC:KST-201 400:1, 2 days, read-out: CD50 (μM) of each Compound tested in combination, MDAH 2274
  IC50: 389 ± 9.6 µM
MDAH2274; 72 h, MTT, 3 days incubation, read-out: CD50 against MDAH, compound tested individually
  IC50: 879 µM
MDAH2274; 72 h, VC:KST-201 400:1, 3 days, read-out: CD50 (μM) of each Compound tested in combination, MDAH 2274
  IC50: 393 µM
T24; T-24, 24 h, 1 day
  IC50: 638 µM
T24; T-24, 48 h, 2 days
  IC50: 634 µM
Terminal cancer; 100 terminal cancer patients, 10 g/day i.v. 10 days then oral, controls 50 days
  Mean survival time (MST): > 210 days
Terminal cancer; 100 terminal cancer patients
  MST, times greater than that of the controls: more than 4.2 times
Terminal cancer; six ovarian cancer subjects, controls 71 days
  MST of subjects with ovarian cancer: 148 days
Advanced cancer
  Benefit of oral VC treatment: no benefits of oral VC treatment
[4]
  Mortality, weight changes, blood chemistry, hematology, histology, other pathologies: no abnormal rates of mortality
